Measurements published in patent publication US8541468B2, “Ophthalmic composition for treating tear dysfunction” (Ophtecs Corporation, priority 2003, dated 2013).

Assays:
Format in all cases: in vivo
rat dry eye models [1] = assay: Observation of dry spot areas in the tear film of rat dry eye models; conditions: four times a day for 5 days, dry environment
Excerpt: Air was blown against rats in a low humidity environment as described below to prepare rat dry eye models. An effect of sodium D-3-hydroxybutyrate (hereinafter abbreviated as “HBA.Na”) which is an active ingredient in the present invention, i.e., its effect of improving the stability of tear film, was examined by use of the prepared rat dry eye models. That is, observation of dry spot areas in the tear film of the rats and measurement of BUT of the tear film were made. […]
After passage of two hours from the last application of the eye drops on the fifth day, a xylazine hydrochloride/ketamine hydrochloride mixed solution was injected (2 ml/kg) into the rats to anesthetize them. […] Dry spot areas had been observed for 5 minutes since the eye-opening by use of a dry eye observation device “DR-1” (product of KOWA CO., LTD.), and the observed images were recorded on a videotape. The observed images were analyzed by use of image analysis software “Scion Image (version 4.02β)” (product of Scion Corporation) to determine a dry spot area per unit area [dry spot area (pixel)/area of observed area on the cornea (pixel)]. From the area, a dry spot area per unit area of the cornea [dry spot area (mm^2)/area of observed area on the cornea (mm^2)] was calculated by use of a conversion formula (1 pixel=0.0000195 mm^2) and evaluated. […]

[2] = tested on: corneal epithelial cells of rat dry eye models; assay: SEM observation of corneal epithelial cells of rat dry eye models (proportion of dark cells, microvilli); conditions: 80 mmol/l HBA.Na applied for 5 days, dry environment
Method: By use of the rat dry eye models described in Example 1, the corneal epithelial cells of the rats after HBA.Na and PBS were applied were observed by a scanning electron microscope (hereinafter abbreviated as “SEM”).
Samples were prepared in the following manner. • (1) In accordance with the methods described (1), (2) and (4) of Example 1, after 80 mmol/l of HBA.Na and a PBS solution were applied for 5 days, the corneas of the rats were removed immediately and washed with a phosphate buffer (hereinafter abbreviated as “PB”). […]
The photographs taken by the above method were subjected to image analysis to calculate the proportion of the number of dark cells. In the analysis, 6 spots of a certain area were selected randomly from the photograph, the numbers of cells and dark cells within the areas were counted, and the ratio of the number of dark cells to the number of all cells was calculated. […]

rat dry eye models [3] = assay: Measurement of tear film breakup time (BUT) in rat dry eye models; conditions: eye drops of any concentration (40, 80 and 120 mmol/L HBA.Na), four times a day for 5 days, dry environment
Excerpt: Air was blown against rats in a low humidity environment as described below to prepare rat dry eye models. An effect of sodium D-3-hydroxybutyrate (hereinafter abbreviated as “HBA.Na”) which is an active ingredient in the present invention, i.e., its effect of improving the stability of tear film, was examined by use of the prepared rat dry eye models. That is, observation of dry spot areas in the tear film of the rats and measurement of BUT of the tear film were made.
As the animals to be examined, there were used female SD rats of 8 weeks old that had been conditioned in an animal room where they were kept under light for 12 hours and in the dark for 12 hours at a room temperature of 23±2° C. and a relative humidity of 60±10%. The rats were kept in the animal room for 4 days. […]
After passage of two hours from the last application of the eye drops on the fifth day, a xylazine hydrochloride/ketamine hydrochloride mixed solution was injected (2 ml/kg) into the rats to anesthetize them. After 1% fluorescein was added to the eyes of the rats and the rats were forced to blink a few times, BUT was measured. The above procedure was conducted for HBA.Na concentrations of 40, 80 and 120 mmol/L, and each of the HBA.Na concentrations was evaluated based on 8 eyes of 8 rats.

C[C@@H](O)CC(=O)[O-].[Na+] [HBA.Na, sodium D-3-hydroxybutyrate]
dry spot area per unit area of the cornea, compared with PBS (rat dry eye models [1]; eye drop containing 80 mmol/l HBA.Na, p<0.05 vs PBS): significantly smaller dry spot area
dry spot area per unit area of the cornea, compared with PBS (rat dry eye models [1]; eye drop containing 120 mmol/l HBA.Na, tendency only): the dry spot area also became smaller
state of the microvilli/microvillus of the corneal epithelial cells ([2]; SEM): retained in a normal state and/or restored to the normal state
proportion of dark cells in corneal epithelial cells, compared with PBS ([2]; SEM image analysis): significantly lower proportion of dark cells
tear film breakup time (BUT), compared with PBS (rat dry eye models [3]): BUT extended more significantly
